According to PMC8403869 (Proceedings of the National Academy of Sciences of the …, 2021):

Key:
human ABCG1 (G1) = molecular target: T1, human ABCG1 (G1) (Homo sapiens, UniProt P45844); test: NADH-coupled ATPase stimulation; type: biochemical; details: 0.25 mM cholesterol, 0.5-20 mM ATP, 2 mM MgCl2, pH 7.5, 37 °C
T1 construct: full-length cDNA, N-terminal Flag tag; homodimer; WT from Sf9, E242Q from HEK-293S GnTI-; LMNG then digitonin

[1] = molecular target: T2, human ABCG5-ABCG8 heterodimer (G5G8) (Homo sapiens, UniProt Q9H221+Q9H222); test: […]phosphate release ATPase assay; type: biochemical; details: 2.5 mM gamma-[32P]ATP (labelled compound), 2.5 mM MgCl2, liver polar lipids, 1% sodium cholate, pH 7.5, 37 °C
T2 construct: heterodimer; HEK-293S GnTI- or Pichia pastoris
T2 sequence (Q9H222 1-651): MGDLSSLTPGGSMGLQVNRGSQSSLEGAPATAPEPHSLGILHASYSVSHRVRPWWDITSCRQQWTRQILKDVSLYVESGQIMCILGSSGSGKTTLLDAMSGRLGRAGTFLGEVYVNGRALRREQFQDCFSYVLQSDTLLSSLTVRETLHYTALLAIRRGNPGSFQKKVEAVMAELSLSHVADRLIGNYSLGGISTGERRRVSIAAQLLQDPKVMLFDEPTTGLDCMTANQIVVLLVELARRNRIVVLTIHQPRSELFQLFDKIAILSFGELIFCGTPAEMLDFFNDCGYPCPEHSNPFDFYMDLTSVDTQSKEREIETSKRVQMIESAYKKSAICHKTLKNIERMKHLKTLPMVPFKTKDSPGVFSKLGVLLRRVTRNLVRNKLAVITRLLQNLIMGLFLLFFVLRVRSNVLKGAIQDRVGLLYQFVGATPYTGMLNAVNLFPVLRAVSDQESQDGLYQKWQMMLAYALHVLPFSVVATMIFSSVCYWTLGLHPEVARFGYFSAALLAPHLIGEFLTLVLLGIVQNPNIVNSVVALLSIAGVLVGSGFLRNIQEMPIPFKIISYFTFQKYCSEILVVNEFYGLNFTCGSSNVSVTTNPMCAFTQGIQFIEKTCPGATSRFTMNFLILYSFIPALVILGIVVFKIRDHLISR
T2 sequence (Q9H221 1-673): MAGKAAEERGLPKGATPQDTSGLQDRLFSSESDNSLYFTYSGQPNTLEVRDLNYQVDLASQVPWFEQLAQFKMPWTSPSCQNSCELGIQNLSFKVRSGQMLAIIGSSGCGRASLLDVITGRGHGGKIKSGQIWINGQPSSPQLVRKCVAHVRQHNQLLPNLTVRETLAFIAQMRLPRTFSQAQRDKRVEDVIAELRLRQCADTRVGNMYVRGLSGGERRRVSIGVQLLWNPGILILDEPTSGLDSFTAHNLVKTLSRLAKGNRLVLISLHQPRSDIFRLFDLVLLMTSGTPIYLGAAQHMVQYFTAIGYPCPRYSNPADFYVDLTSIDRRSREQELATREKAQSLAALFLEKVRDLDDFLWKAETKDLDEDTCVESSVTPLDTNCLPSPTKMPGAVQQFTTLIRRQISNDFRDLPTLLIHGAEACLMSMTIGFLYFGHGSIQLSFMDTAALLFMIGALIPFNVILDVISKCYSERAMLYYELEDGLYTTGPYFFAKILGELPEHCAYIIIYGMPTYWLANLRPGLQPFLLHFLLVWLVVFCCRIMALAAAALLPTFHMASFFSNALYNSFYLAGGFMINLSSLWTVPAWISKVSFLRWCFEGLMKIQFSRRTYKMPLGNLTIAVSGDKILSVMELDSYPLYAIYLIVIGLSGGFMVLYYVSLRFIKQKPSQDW

SMILES | ATPase stimulation (human ABCG1 (G1)) | [32P]phosphate release ATPase assay [1]
CC(C)CCC[C@@H](C)[C@H]1CC[C@H]2[C@@H]3CC=C4C[C@@H](O)CC[C@]4(C)[C@H]3CC[C@]12C [cholesterol] | ATPase activity was stimulated by cholesterol but not its diastereomer, epi-cholesterol. | –
Nc1ncnc2c1ncn2[C@@H]1O[C@H](COP(=O)(O)OP(=O)(O)OP(=O)(O)O)[C@@H](O)[C@H]1O [ATP] | – | The ATPase activity of purified G5G8 was determined as described
